We go through three molecules from patent US12595251B2, “Amidines and amidine analogs for the treatment of bacterial infections and potentiation antibiotics” (GEORGIA STATE UNIVERSITY RESEARCH FOUNDATION, INC., priority 2018, dated 2026).

What is called viability is a read-out of living cells in per cent, often relative to untreated cells. The term MIC denotes the least concentration at which growth counts as inhibited.

Entries after “also recorded” stand apart in the source; their conditions may differ. Where a name gives a salt, the structure may show the parent alone.

For one test, the system named is B. subtilis. The experiment in a line: B. subtilis viability with antibiotic in absence or presence of compound (OD600, 20 h). The class given is cell-based, Bacillus subtilis. On the procedure: Bacterial viability was then determined by measuring density using OD600. […] B. subtilis was also cultured with either novobiocin or tetracycline at varying concentrations either in the absence or presence of compound M-1 (12.5 μM) for 20 hours. Bacterial viability was subsequently determined by measuring density using OD600.
(§1) Bacterial viability was then determined by measuring density using OD600.

Test [1] deals with E. coli. Nature of the test: Resistance frequency analysis of E. coli on agar plates. The class given is cell-based, Escherichia coli. Particulars: from 6*10^8 CFU E. coli; antibiotic at 2 to 6-fold MIC with 10 μg/ml Compound M-1, 48 h. On the procedure:
Resistance frequency is an important issue to consider when developing new antimicrobial agents. Using a standard resistance frequency analysis procedure, the resistance frequency was determined. […] Colonies that survived the antibiotic and Compound M-1 combination were considered resistant mutant strains toward this combinational treatment. […] Compound M-1 lowers the resistance frequency of bacteria toward antibiotics. The component in the combination responsible for the resistance was next determined. The 16 resistant colonies were challenged with another combination-rifampicin and Compound M-1.

In test [2] the test system is E. coli. Nature of the test: E. coli viability with antibiotic in absence or presence of compound (OD600, 20 h). The class given is cell-based, Escherichia coli. Here is the method:
as §1

In test [3] the test system is wild type B. subtilis. Nature of the test: Sensitization of B. subtilis toward antibiotics (MIC, OD600, 24 h). The class given is cell-based, Bacillus subtilis. Here is the method: FIG. 22A is a bar graph showing that Compound M-1 sensitizes B. subtilis towards rifampicin as described in Example 13. Bacteria was cultured with rifampicin at various concentrations in the presence or absence of Compound M-1 for 24 hours at 37° C. and bacterial growth density was determined by measuring OD600. The y-axis is growth density measured in percent. The x-axis is rifampicin concentration measured in micrograms per milliliter (***: p<0.01).
Compound M-1 can sensitize Gram-positive bacteria such as B. subtilis towards traditional antibiotics. […] The sensitization fold is 32-fold for Compound M-1 and the FIC index is 0.14.

The test system of test [4] is E. coli. Nature of the test: O-methyl novobiocin concentration inside E. coli (HPLC of lysate). The class given is cell-based, Escherichia coli. Particulars: 50 μg/ml O-methyl novobiocin, 24 h, with 10 μg/ml Compound M-1 vs without. Here is the method:
The antibiotic concentration inside E. coli with and without Compound M-1 was measured. The inactivated form of antibiotic was used because the active antibiotic would kill the bacteria or inhibit bacterial growth and this would lead to results that cannot be compared against other control experiments. O-Methyl novobiocin is an inactivated form of novobiocin that was used for this experiment.
E. coli was cultured with 50 μg/ml O-methyl novobiocin for 24 hours at 37° C. with continuous shaking in the absence and presence of 10 μg/ml Compound M-1. E. coli was then centrifuged and the supernatant was removed. To the precipitation that contained E. coli, PBS and novobiocin were added as internal standard and the resulting mixture was sonicated to lyse the cell. The mixture was diluted with acetonitrile (3×) and centrifuged. The supernatant, which contained O-methyl novobiocin, was analyzed by HPLC. The O-methyl novobiocin concentrations inside the bacteria increased 9.1-fold in E. coli in the presence of 10 μg/ml Compound M-1 (FIG. 19). Such results correlate well with the fact that 10 μg/ml Compound M-1 can sensitize E. coli towards novobiocin 8-fold.

The next test deals with MRSA. The experiment in a line: Sensitization of MRSA toward antibiotics (OD600, 24 h). The class given is cell-based, Staphylococcus aureus. Here is the method: Bacteria was cultured with rifampicin at various concentrations in the presence or absence of Compound M-1 for 24 hours at 37° C. and bacterial growth density was determined by measuring OD600. The y-axis is growth density measured in percent. The x-axis is rifampicin concentration measured in micrograms per milliliter (***: p<0.01).
Compound M-1 (2.7 μg/ml) sensitizes MRSA towards existing antibiotics such as rifampicin (32-fold) (FIG. 22B) and trovafloxacin (16-fold). Rifampicin is the first line of defense against MRSA and many MRSA stains grow resistance to rifampicin through overexpression of efflux pump and other mechanisms. Combined with Compound M-1, rifampicin can be used more effectively against MRSA.

The next test deals with wild-type E. coli. The experiment in a line: Sensitization of wild-type E. coli toward antibiotics (MIC of antibiotic with/without sensitizer). The class given is cell-based, Escherichia coli. Here is the method: Bacteria were cultured with the antibiotic at various concentrations in the presence or absence of bacterial sensitizer for 24 hours at 37° C. Bacterial growth density was determined by measuring OD600 (absorbance measured at a wavelength of 600 nm). […]
The formula for calculating FIC is shown below: […]

The subject of test [5] is wild type B. subtilis. Nature of the test: Sensitization of B. subtilis toward antibiotics (MIC, OD600, 24 h). The class given is cell-based, Bacillus subtilis. Particulars: Compound M-1 5.5 μg/ml.
The nature of test [6]: Lipid A binding assay using Dansyl-PMBN displacement on E. coli. Also noted: species or system Escherichia coli. Particulars: 10 μM Dansyl-PMBN on E. coli, gradual addition of compound. On the procedure: FIG. 21 is a graph describing the in vivo lipid A binding assay using Dansyl-PMBN as described in Example 11. Dansyl-PMBN (10 μM) was added to E. coli (OD600 measurement of about 0.5) and the fluorescent intensity at this time was recorded as F0. Sensitizers (Compound C, Compound E-20, and Polymyxin B) were added gradually and the fluorescent intensity was recorded 30 seconds later to determine the fluorescent intensity as a percent. The x-axis is concentration of the sensitizers measured in μM and the y-axis is the fluorescent intensity measured as a percent.
Lipid A is a key component of the outer membrane of Gram-negative bacteria and is responsible for maintaining its integrity of the outer membrane. The binding affinity of the compounds of the present invention to Lipid A was measured following literature procedures using a fluorescent conjugate of a polymyxin-B derivative (Dansyl-PMBN). Dansyl-PMBN binds to the lipid A part of LPS and leads to increased fluorescent intensity. […] When 10 μM of Dansyl-PMBN was added to E. coli stock (OD600 measurement around 0.5), the fluorescent intensity increased 10-fold.

A further test relates to E. coli outer membrane. Nature of the test: E. coli outer membrane integrity, lysozyme lysis assay. The class given is cell-based, Escherichia coli. Particulars: lysozyme 50 μg/ml, Compound C 25 μg/ml, 10 min, OD600; dihydrochloride. On the procedure: FIG. 20 is a graph of the E. coli outer membrane integrity measurement using the lysosomal lysis assay as described in Example 10. E. coli (OD600 measurement of about 0.5) was treated with Compound C with or without lysozyme for 10 minutes at room temperature. E. coli with impaired outer membrane caused by Compound C lead to decreased OD600 measurements. The x-axis is labeled with the compound and the y-axis is E. coli growth density determined by measuring OD600, Polymyxin B and pentamidine were used as positive controls.
The mechanism of action was also elucidated using a well-recognized lysosome assay that allows for assessment of membrane permeability. Specifically, lysozyme (about 14 KDa) breaks down bacterial cell wall and leads to bacterial lysis. However, lysozyme cannot penetrate intact Gram-negative bacterial outer membrane. With impaired Gram-negative bacterial membrane, lysozyme is able to diffuse across the disrupted membrane and enzymatically cleave peptidoglycan, which leads to bacterial lysis. […] In the absence of the sensitizer, no cell lysis was observed.

As for `Cc1cc(COc2ccc(C(=N)N)cc2)cc(COc2ccc(C(=N)N)cc2)c1` [Compound M-1, 4,4′-(((5-Methyl-1,3-phenylene)bis(methylene))bis(oxy))dibenzimidamide Hydrochloride], in the test with B. subtilis (Bacillus subtilis, 12.5 μM, 20 h, read-out: B. subtilis viability, compound alone), the viability at 12.5 µM is 80%. The “B. subtilis growth inhibition, compound in combination with novobiocin or tetracycline” value with B. subtilis (Compound M-1 12.5 μM, 20 h) was “significant bacterial growth inhibition”. Further, the “Effect of lipoteichoic acid (LTA) on growth inhibition by erythromycin + M-1 in B. subtilis” value in the test with B. subtilis (LTA 1 mg/mL) is given as “could be inhibited by co-culturing with lipoteichoic acid (LTA)”. Also, the “B. subtilis growth inhibition, compound in combination with erythromycin vs erythromycin alone” value with B. subtilis (M-1 12.5 or 6 μM, A-2 6 or 12.5 μM, A-8, 20 h) was “significant bacterial growth inhibition”. Moreover, the “Colonies resistant to antibiotic-Compound M-1 combinations” value in the test with E. coli [1] was 16 colonies. Also, the “Effect of LPS or Mg2+ on sensitization of E. coli by M-1 with erythromycin” value in the test with E. coli [2] (2 mg/mL LPS or 21 mM Mg2+, M-1 12 μM) is given as “inhibited”. Moreover, the “E. coli growth inhibition, compound in combination with erythromycin” value in the test with E. coli [2] (M-1 25 μM or 12 μM, A-1 12 μM, A-8, 20 h) is listed as “significant bacterial growth inhibition”. Besides, in the test on wild type B. subtilis [3] (5.5 μg/ml Compound M-1), the “FIC index, rifampicin on B. subtilis” value was 0.11 and the “Sensitization fold, B. subtilis towards rifampicin” value was 256 fold. Moreover, the “Growth density compared with no-treatment group” value in the test on wild type B. subtilis [3] (5.5 μg/ml of Compound M-1 by itself) is given as 80%. In addition, in the test on wild type B. subtilis [3] (Bacillus subtilis, read-out: MIC on wild type B. subtilis), the MIC came out at 50 µg/mL. Also, in the test on E. coli [4], the “Increase of O-methyl novobiocin concentration inside E. coli” value was determined as 9.1 fold. In the test on MRSA (Compound M-1 2.7 μg/ml), the “Sensitization fold, MRSA towards rifampicin” value came to 32 fold and the “Sensitization fold, MRSA towards trovafloxacin” value is 16 fold. Further, the “Sensitization of MRSA towards rifampicin (qualitative)” value in the test with MRSA (FIG. 22B, 24 h, 37 °C) is “sensitize MRSA towards rifampicin”. Further, the “Sensitization of E. coli towards novobiocin” value in the test with wild-type E. coli (10 μg/ml Compound M-1) was 8 fold. In addition, the Sensitization fold in the test on wild-type E. coli (compound at 5 μg/ml, strain and antibiotic not stated in Table 8) is recorded as 8. Also, in the test with wild type B. subtilis [5], the “FIC index, erythromycin on B. subtilis” value is 0.14; the “Sensitization fold, B. subtilis towards clarithromycin” value worked out at 32 fold; the “Sensitization fold, B. subtilis towards clindamycin” value is on record as 16 fold; the “Sensitization fold, B. subtilis towards entrapenem” value turned out to be 4 fold. For the same molecule, in the test on wild type B. subtilis [5], the “Sensitization fold, B. subtilis towards erythromycin” value worked out at 32 fold; the “Sensitization fold, B. subtilis towards methicillin” value is reported as 4 fold; the “Sensitization fold, B. subtilis towards novobiocin” value was determined as 4 fold; the “Sensitization fold, B. subtilis towards trovafloxacin” value stood at 8 fold.
Turning to `N=C(N)c1ccc(COc2cc(OCc3ccc(C(=N)N)cc3)cc(C(F)(F)F)c2)cc1` [Compound C, 1,3-Bis {(4-amidino)-benzyloxy}-5-trifluoromethylbenzene dihydrochloride], the “Binding to lipid A (decrease of Dansyl-PMBN fluorescent intensity)” value in test [6] is reported as “bind to lipid A”. The “Lysozyme-induced lysis of E. coli (membrane integrity)” value in the test on E. coli outer membrane is “quick bacterial lysis; also recorded: more potent than pentamidine”. The “Minimal concentration achieving 10-fold sensitization of E. coli toward erythromycin” value in the test with wild-type E. coli was 2.5 μg/ml. The “Sensitization fold, rifampicin on E. coli” value is on record as 8 in the test with wild-type E. coli (Compound C 2 μg/ml), 128 in the test with wild-type E. coli (Compound C 4 μg/ml), 1024 in the test with wild-type E. coli (Compound C 6 μg/ml) and 2,048 with wild-type E. coli (Compound C 8 μg/ml). Further, the “MIC of rifampicin on E. coli” value with wild-type E. coli (with Compound C 2 μg/ml) is 1.25 µg/mL; with wild-type E. coli (with Compound C 4 μg/ml), 0.08 µg/mL; with wild-type E. coli (with Compound C 6 μg/ml), 0.01 µg/mL; in the test on wild-type E. coli (with Compound C 8 μg/ml), 0.005 µg/mL; with wild-type E. coli (with Compound C 10 μg/ml), 0.0006 µg/mL.
With `CCCCCc1cc(OCc2ccc(C(=N)N)cc2)cc(OCc2ccc(C(=N)N)cc2)c1` [Compound E-20, 1,3-Bis {(4-amidino)-benzyloxy}-5-(n-pentyl)benzene dihydrochloride], in test [6], the “Binding to lipid A (decrease of Dansyl-PMBN fluorescent intensity)” value is given as “bind to lipid A”.
